Active and inactive are the calls of the source. No cut-off for these calls is given here.
Key:
[1] = test system: HTM; test: Induction of morphological changes in human HTM cells assessed as appearance of rounded cells at 15 uM incubated for 10 hrs by light microscopic analysis; format: functional, cell-based
[2] = test system: HTM; test: Induction of morphological changes in human HTM cells assessed as appearance of rounded cells at 45 uM incubated for 10 hrs by light microscopic analysis; format: functional, cell-based
[3] = Cytotoxicity against human HTM cells assessed as reduction in cell viability at 15 uM incubated for 24 hrs by MTT assay relative to control; format: toxicity, cell-based
[4] = Cytotoxicity against human HTM cells assessed as reduction in cell viability at 45 uM incubated for 24 hrs by MTT assay relative to control; format: toxicity, cell-based
[5] = test system: HTM; test: Induction of F-actin depolymerization in human HTM cells at 5 uM incubated for 4 hrs by rhodamine-phalloidin staining based analysis; format: cell-based
[6] = test system: HTM; test: Inhibition of paxillin expression in human HTM cells at 5 uM; format: functional, cell-based
[7] = test system: HTM; test: Inhibition of TGF-beta2 induced alpha-SMA expression in human HTM cells at 1 uM pretreated with compound for 2 hrs followed by TGF-beta2 induction and measured after 24 hrs; format: functional, cell-based; details: time 26.0 hrs
[8] = test system: HTM; test: Inhibition of TGF-beta2 induced collagen 1A expression in human HTM cells at 1 uM pretreated with compound for 2 hrs followed by TGF-beta2 induction and measured after 24 hrs; format: functional, cell-based; details: time 26.0 hrs
[9] = test system: HTM; test: Inhibition of H2O2-induced ROS production in human HTM cells assessed as decrease in green fluorescence at 1 uM preincubated for 1 hrs followed by H2O2 induction for 2 hrs and measured after 30 mins by DCFH-DA based fluorescence microscopic analysis; format: functional, cell-based; details: time 3.5 hrs
[10] = test system: Mitochondrial membrane; test: Induction of mitochondrial membrane potential in human HTM cells at 1 uM incubated for 24 hrs by JC-1 staining based flow cytometry analysis
[11] = Induction of apoptosis in H2O2-induced human HTM cells at 1 uM pretreated with compound for 1 hr followed by H2O2 induction and measured after 2 hrs by Annexin V AF647/PI staining based flow cytometry analysis (reference value: 13.47%); format: functional; details: time 3 hrs
[12] = species: Oryctolagus cuniculus; test: Anti-glaucoma activity in methylcellulose-induced acute intraocular hypertensive rabbit model assessed as reduction in intraocular pressure at 0.1 %, TOP measured at 4 hrs; format: functional
[13] = species: Oryctolagus cuniculus; test: Anti-glaucoma activity in methylcellulose-induced acute intraocular hypertensive rabbit model assessed as reduction in intraocular pressure at 0.1 %, TOP measured at 8 hrs; format: functional
[14] = species: Oryctolagus cuniculus; test: Anti-glaucoma activity in methylcellulose-induced high acute intraocular hypertensive rabbit model assessed as reduction in intraocular pressure at 0.1 %, TOP measured at 4 hrs; format: functional
[15] = species: Oryctolagus cuniculus; test: Anti-glaucoma activity in methylcellulose-induced acute intraocular hypertensive rabbit model assessed as reduction in intraocular pressure at 0.1 %, TOP measured at 2 hrs; format: functional
[16] = Toxicity in rabbit assessed as appearance of conjunctival congestion by measuring ocular irritation score at 0.1 % TOP administration on left eye measured after 7 days by draize eye irritation test; format: tissue-based, Oryctolagus cuniculus; details: in vivo, topical_or_ocular, 168 h, time 7 day
[17] = Toxicity in rabbit assessed as appearance of conjunctival congestion by measuring ocular irritation score at 0.1 % TOP administration on left eye measured on day 4 by draize eye irritation test; format: tissue-based, Oryctolagus cuniculus; details: in vivo, topical_or_ocular, 96 h, time 4 day
[18] = target: T1, Rho-associated protein kinase 1 (Homo sapiens, UniProt Q13464); test: Inhibition of ROCK1 (unknown origin) incubated for 40 mins in presence of ATP by ADP-glo assay
Target sequence in this assay (Q13464 whole entry): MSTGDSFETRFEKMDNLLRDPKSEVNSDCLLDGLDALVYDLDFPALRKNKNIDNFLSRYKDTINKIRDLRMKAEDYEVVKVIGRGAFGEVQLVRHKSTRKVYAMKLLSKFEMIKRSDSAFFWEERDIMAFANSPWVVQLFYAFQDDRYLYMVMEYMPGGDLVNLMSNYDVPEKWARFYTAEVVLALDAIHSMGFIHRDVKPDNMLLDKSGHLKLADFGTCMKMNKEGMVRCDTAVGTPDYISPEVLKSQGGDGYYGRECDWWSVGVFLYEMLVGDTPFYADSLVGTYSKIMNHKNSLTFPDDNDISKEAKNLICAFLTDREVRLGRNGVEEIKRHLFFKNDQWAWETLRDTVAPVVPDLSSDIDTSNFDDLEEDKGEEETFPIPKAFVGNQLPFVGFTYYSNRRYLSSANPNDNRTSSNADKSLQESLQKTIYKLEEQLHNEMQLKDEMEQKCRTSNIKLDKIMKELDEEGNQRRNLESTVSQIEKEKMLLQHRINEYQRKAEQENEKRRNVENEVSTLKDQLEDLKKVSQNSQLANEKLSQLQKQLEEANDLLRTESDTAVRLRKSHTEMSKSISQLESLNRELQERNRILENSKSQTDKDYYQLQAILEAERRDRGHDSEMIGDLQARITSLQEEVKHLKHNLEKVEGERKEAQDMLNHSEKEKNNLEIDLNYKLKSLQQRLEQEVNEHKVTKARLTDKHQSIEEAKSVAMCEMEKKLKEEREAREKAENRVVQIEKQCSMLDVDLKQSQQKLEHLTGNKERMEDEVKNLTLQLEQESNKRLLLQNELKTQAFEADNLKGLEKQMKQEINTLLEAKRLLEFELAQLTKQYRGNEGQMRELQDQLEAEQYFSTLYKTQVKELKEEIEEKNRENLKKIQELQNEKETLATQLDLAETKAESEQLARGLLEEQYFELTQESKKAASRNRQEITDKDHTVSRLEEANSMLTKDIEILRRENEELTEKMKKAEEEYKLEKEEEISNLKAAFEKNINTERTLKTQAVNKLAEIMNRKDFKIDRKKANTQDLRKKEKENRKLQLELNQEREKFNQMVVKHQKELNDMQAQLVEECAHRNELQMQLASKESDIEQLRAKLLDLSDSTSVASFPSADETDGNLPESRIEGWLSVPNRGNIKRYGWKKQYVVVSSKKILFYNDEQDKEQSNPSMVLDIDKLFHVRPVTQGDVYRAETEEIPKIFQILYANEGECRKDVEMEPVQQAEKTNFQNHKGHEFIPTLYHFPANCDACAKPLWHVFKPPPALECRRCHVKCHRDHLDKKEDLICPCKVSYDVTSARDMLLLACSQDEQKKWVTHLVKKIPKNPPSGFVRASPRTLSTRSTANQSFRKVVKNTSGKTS

[19] = target: T2, Rho-associated protein kinase 2 (Homo sapiens, UniProt O75116); test: Inhibition of ROCK2 (unknown origin) incubated for 40 mins in presence of ATP by ADP-glo assay
Target sequence in this assay (O75116 whole entry): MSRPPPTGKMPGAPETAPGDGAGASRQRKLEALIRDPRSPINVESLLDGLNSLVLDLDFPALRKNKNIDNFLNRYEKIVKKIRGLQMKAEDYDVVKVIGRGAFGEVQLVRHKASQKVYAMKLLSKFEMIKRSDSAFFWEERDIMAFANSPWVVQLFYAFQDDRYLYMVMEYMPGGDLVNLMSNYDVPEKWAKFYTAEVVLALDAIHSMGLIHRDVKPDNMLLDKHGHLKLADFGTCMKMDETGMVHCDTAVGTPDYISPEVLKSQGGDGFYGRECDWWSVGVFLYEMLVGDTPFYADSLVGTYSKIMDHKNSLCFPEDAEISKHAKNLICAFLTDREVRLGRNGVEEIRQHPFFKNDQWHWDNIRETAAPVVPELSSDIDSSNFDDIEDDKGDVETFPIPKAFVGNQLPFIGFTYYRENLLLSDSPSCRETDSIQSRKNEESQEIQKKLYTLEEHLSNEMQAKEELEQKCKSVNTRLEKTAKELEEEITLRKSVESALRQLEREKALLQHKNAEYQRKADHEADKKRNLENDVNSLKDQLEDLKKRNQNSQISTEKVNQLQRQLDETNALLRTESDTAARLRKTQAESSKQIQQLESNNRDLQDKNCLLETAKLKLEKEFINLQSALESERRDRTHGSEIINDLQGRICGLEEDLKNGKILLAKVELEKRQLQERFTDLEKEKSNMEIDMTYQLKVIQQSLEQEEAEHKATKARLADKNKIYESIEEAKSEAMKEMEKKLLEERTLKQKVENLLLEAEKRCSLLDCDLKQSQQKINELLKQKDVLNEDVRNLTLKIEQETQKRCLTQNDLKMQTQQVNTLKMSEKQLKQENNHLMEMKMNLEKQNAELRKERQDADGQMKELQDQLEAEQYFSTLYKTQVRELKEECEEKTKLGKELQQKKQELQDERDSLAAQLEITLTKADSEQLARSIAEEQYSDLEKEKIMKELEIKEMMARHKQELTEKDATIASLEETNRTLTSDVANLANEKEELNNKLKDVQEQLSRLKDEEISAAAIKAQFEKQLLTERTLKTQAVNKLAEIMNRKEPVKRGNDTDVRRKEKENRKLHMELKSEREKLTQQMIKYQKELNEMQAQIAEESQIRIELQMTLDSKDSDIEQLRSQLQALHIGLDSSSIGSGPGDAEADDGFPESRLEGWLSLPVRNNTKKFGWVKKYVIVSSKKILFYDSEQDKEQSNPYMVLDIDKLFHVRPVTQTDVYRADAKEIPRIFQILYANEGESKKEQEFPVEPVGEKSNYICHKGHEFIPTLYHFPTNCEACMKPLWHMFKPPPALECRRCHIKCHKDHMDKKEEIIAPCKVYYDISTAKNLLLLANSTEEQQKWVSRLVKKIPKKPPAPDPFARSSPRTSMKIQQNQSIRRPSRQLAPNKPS

[20] = target: T3, MAP kinase-interacting serine/threonine-protein kinase 1 (Homo sapiens, UniProt Q9BUB5); test: Inhibition of MNK1 (unknown origin) at 5 uM preincubated for 10 mins followed by substrate addition and measured after 60 mins by ADP-glo kinase assay relative to control; details: time 70.0 min
Target sequence in this assay (Q9BUB5 whole entry, looked up): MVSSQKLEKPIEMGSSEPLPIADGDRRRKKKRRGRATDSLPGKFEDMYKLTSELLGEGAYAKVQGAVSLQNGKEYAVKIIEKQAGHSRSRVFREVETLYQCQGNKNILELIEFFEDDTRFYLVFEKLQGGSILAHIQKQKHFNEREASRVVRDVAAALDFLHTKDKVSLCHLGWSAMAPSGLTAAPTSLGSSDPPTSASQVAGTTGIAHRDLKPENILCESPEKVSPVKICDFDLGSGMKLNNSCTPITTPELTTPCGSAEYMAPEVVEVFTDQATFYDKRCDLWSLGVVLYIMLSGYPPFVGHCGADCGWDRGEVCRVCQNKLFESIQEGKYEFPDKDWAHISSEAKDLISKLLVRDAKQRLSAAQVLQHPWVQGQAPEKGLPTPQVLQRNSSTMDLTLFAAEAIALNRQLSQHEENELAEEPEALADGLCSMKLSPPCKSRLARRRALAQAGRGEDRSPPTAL

[21] = target: MAP kinase-interacting serine/threonine-protein kinase 2 (Homo sapiens) (UniProt Q9HBH9); test: Inhibition of MNK2 (unknown origin) at 5 uM preincubated for 10 mins followed by substrate addition and measured after 60 mins by ADP-glo kinase assay relative to control; details: time 70.0 min
Chain of MAP kinase-interacting serine/threonine-protein kinase 2 (Homo sapiens) (Q9HBH9 whole entry, looked up): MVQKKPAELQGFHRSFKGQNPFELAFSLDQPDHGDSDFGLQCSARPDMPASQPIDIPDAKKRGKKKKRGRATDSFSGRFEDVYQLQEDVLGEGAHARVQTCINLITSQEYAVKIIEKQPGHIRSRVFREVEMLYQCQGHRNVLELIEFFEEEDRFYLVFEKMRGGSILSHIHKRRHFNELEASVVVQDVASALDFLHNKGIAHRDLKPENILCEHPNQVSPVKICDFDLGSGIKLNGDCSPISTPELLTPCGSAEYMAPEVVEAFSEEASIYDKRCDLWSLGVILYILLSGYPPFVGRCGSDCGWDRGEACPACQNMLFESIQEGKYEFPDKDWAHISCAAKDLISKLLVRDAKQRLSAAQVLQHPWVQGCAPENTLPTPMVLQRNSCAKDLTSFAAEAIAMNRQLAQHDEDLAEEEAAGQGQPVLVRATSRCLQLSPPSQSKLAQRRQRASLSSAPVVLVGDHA

[22] = target: T1, Rho-associated protein kinase 1; test: Inhibition of human ROCK1 using magnesium acetate as substrate at 1 uM measured after 120 mins in presence of [gamma33P]ATP by scintillation counting method relative to control
[23] = target: T2, Rho-associated protein kinase 2; test: Inhibition of human ROCK2 using magnesium acetate as substrate at 1 uM measured after 120 mins in presence of [gamma33P]ATP by scintillation counting method relative to control
Target sequence in this assay (O75116 whole entry, looked up): as the sequence (O75116 whole entry) above

[24] = species: Homo sapiens; test: Inhibition of human PKA using magnesium acetate as substrate at 1 uM measured after 120 mins in presence of [gamma33P]ATP by scintillation counting method relative to control
[25] = target: T3, MAP kinase-interacting serine/threonine-protein kinase 1; test: Inhibition of human MNK1 using magnesium acetate as substrate at 1 uM measured after 120 mins in presence of [gamma33P]ATP by scintillation counting method relative to control
Target sequence in this assay (Q9BUB5 whole entry, looked up): as the sequence (Q9BUB5 whole entry, looked up) above

[26] = target: MAP kinase-interacting serine/threonine-protein kinase 2 (Homo sapiens) (UniProt Q9HBH9); test: Inhibition of human MNK2 using magnesium acetate as substrate at 1 uM measured after 120 mins in presence of [gamma33P]ATP by scintillation counting method relative to control
[27] = species: Homo sapiens; test: Inhibition of human PKB using magnesium acetate as substrate at 1 uM measured after 120 mins in presence of [gamma33P]ATP by scintillation counting method relative to control
[28] = target: Protein kinase C (PKC) (Homo sapiens) (UniProt O94806+P41743+P17252+P05129+Q05655+P05771+Q05513+Q02156+P24723+Q15139+Q04759); test: Inhibition of human PKC using magnesium acetate as substrate at 1 uM measured after 120 mins in presence of [gamma33P]ATP by scintillation counting method relative to control; format: protein assay
[29] = target: Serine/threonine-protein kinase SIK2 (Homo sapiens) (UniProt Q9H0K1); test: Inhibition of human QIK using magnesium acetate as substrate at 1 uM measured after 120 mins in presence of [gamma33P]ATP by scintillation counting method relative to control
Chain of Serine/threonine-protein kinase SIK2 (Homo sapiens) (Q9H0K1 whole entry, looked up): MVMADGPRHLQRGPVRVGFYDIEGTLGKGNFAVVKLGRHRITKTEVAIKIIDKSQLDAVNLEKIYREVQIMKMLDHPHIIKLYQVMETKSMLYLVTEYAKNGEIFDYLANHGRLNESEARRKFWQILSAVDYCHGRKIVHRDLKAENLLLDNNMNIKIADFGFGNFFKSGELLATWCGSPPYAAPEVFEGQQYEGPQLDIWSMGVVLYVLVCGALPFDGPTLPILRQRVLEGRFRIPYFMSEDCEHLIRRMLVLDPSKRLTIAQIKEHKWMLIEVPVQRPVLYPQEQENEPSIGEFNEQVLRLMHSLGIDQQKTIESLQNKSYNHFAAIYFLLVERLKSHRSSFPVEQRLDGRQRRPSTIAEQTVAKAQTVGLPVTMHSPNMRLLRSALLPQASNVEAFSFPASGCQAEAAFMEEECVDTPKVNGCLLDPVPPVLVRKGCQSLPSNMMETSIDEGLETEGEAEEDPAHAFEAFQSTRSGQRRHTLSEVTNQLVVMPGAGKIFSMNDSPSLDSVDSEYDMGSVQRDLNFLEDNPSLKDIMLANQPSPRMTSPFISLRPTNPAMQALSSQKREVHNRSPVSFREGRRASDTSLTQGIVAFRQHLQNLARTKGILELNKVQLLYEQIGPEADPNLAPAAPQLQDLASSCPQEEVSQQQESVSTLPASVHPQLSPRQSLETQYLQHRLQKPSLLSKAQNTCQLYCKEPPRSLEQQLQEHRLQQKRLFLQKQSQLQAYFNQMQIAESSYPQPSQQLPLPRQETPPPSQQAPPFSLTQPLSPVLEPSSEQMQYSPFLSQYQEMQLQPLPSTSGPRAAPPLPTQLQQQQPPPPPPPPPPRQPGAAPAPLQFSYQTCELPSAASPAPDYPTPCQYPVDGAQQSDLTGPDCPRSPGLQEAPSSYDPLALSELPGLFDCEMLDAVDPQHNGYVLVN

[30] = target: Mitogen-activated protein kinase kinase kinase kinase 4 (Homo sapiens) (UniProt O95819); test: Inhibition of human HGK using magnesium acetate as substrate at 1 uM measured after 120 mins in presence of [gamma33P]ATP by scintillation counting method relative to control
[31] = test system: HTM; test: Induction of morphological changes in human HTM cells at 3 uM incubated for 10 hrs by light microscopic analysis; format: functional, cell-based
[32] = test system: HTM; test: Induction of morphological changes in human HTM cells assessed as appearance of cell contraction at 45 uM incubated for 10 hrs by light microscopic analysis; format: functional, cell-based
[33] = test system: HTM; test: Induction of morphological changes in human HTM cells assessed as appearance of cell contraction at 15 uM incubated for 10 hrs by light microscopic analysis; format: functional, cell-based
[34] = Cytotoxicity against human HTM cells assessed as inhibition of cell proliferation at 45 uM incubated for 24 hrs by MTT assay; format: toxicity, cell-based
[35] = test system: HTM; test: Induction of F-actin depolymerization in human HTM cells at 1 to 5 uM incubated for 4 hrs by rhodamine-phalloidin staining based analysis; format: cell-based; details: dose 1-5 µM
[36] = test system: HTM; test: Inhibition of paxillin expression in human HTM cells at 0.02 to 5 uM; format: functional, cell-based; details: dose 0.02-5 µM
[37] = test system: HTM; test: Induction of morphological changes in human HTM cells at 0.1 uM incubated for 10 hrs in presence of eFT508 by light microscopic analysis; format: functional, cell-based
[38] = test system: HTM; test: Inhibition of cell migration in human HTM cells at 1 uM incubated for 24 to 48 hrs by wound healing assay; format: functional, cell-based; details: time 24-48 hrs
[39] = test system: HTM; test: Anti-inflammatory activity against human HTM cells assessed as inhibition of H2O2-induced IL-6 secretion; format: functional, cell-based
[40] = test system: HTM; test: Anti-inflammatory activity against human HTM cells assessed as inhibition of H2O2-induced NF-kappaB secretion; format: functional, cell-based
[41] = test system: HTM; test: Anti-inflammatory activity against human HTM cells assessed as inhibition of H2O2-induced i-NOS secretion; format: functional, cell-based
[42] = Toxicity in rabbit assessed as appearance of conjunctival congestion by measuring ocular irritation score at 0.1 % TOP administration on left eye measured at 7 days by draize eye irritation test; format: tissue-based, Oryctolagus cuniculus; details: in vivo, topical_or_ocular, 168 h, time 7 day
[43] = target: T2, Rho-associated protein kinase 2; test: Inhibition of ROCK2 (unknown origin) relative to control; details: concentration not given here
Target sequence in this assay (O75116 whole entry, looked up): as the sequence (O75116 whole entry) above

[44] = target: T3, MAP kinase-interacting serine/threonine-protein kinase 1; test: Inhibition of MNK1 (unknown origin) preincubated for 10 mins followed by substrate addition and measured after 60 mins by ADP-glo kinase assay
Target sequence in this assay (Q9BUB5 whole entry): as the sequence (Q9BUB5 whole entry, looked up) above

Activity [10] | IC50 [18] | IC50 [19] | Structure (SMILES) | inhibition [7] | inhibition [8] | inhibition [9] | Activity [11] | Activity [12] | Activity [13] | Activity [14] | Activity [15] | Activity [31] | Activity [32] | Activity [33] | Activity [34] | inhibition [36] | inhibition [38] | Activity [39] | inhibition [40] | Activity [41] | further results
inactive | – | – | Cc1ccc(C(=O)OCc2ccc([C@@H](CN)C(=O)Nc3ccc4cnccc4c3)cc2)c(C)c1 | Active | Active | Active | 43.02% | 3.55 mmHg | 4.7 mmHg | 9.5 mmHg | 8.16 mmHg | – | – | – | – | – | – | – | – | – | Activity [1]: Active; Activity [2]: Active; Activity [3]: 60%; Activity [4]: 80%; Activity [5]: Active; inhibition [6]: Active; Activity [16]: Toxic; Activity [17]: Toxic
Active | 123 nM | 96.7 nM | COc1cccc(CN2CCC(c3cc(-c4ccnc5[nH]ccc45)[nH]n3)CC2)c1 | Active | Active | Active | 34.32% | 0.89 mmHg | 0.22 mmHg | 5.01 mmHg | – | Minimal_effect; Compound Induced Minimal Changes In Cell Morphology | Active | Active | Non-toxic | Active | inactive | Active | Active | Active | inhibition [20]: 61.6%; inhibition [21]: 64.7%; inhibition [22]: 85%; inhibition [23]: 89%; inhibition [24]: 70%; inhibition [25]: < 55%; inhibition [26]: < 50%; inhibition [27]: < 50%; inhibition [28]: < 55%; inhibition [29]: < 50%; inhibition [30]: < 55%; Activity [35]: Active; Activity [37]: Active; Activity [42]: Non-toxic
inactive | 47.2 nM | 33.8 nM | c1cc(-c2cc(C3CCNCC3)n[nH]2)c2cc[nH]c2n1 | Active | Active | Active | 36.77% | 5 mmHg | 2.56 mmHg | – | 9.38 mmHg | Minimal_effect; Compound Induced Minimal Changes In Cell Morphology | Active | Active | Non-toxic | Active | inactive | Active | Active | Active | inhibition [43]: 98%; IC50 [44]: 47.2 nM; Activity [42]: Non-toxic

— ChEMBL document CHEMBL6177997, “Design, Synthesis, and Evaluation of Novel ROCK Inhibitors for Glaucoma Treatment: Insights into In Vitro and In Vivo Efficacy and Safety” (J Med Chem, 2025)
